Measured values: patent US20060074073A1, “Therapeutic combinations comprising poly (ADP-ribose) polymerases inhibitor” (AGOURON PHARMACEUTICALS, INC., priority 2004, published 2006)
Values joined by “and” are separate entries in the source; they are usually repeats but may differ in a detail not shown here. Equal entries are not always repeated. Where two headings read alike, the source gives them in different places. Marks after values point to notes of the source that are not given here.

Assays:
PARP [1] = experiment: PARP inhibition in tumor biopsies of patients; format: in vivo, human
Description: Whole blood was collected into EDTA vacutainers and human PBLs were obtained by lymphopreparation according to the manufacturers instructions. Tumour biopsies were collected from the operating theatre in a sterile container and placed immediately on ice. Within 30 minutes tumour samples were snap frozen in liquid nitrogen and stored at −80° C. until homogenised for analysis. The specimen was defrosted on ice and the wet weight documented. For weights over 100 mg the tissue was homogenised using a Pro 2000 instrument (Pro Scientific Inc, Monroe, Conn., USA) in 3 volumes (i.e. 1 mg plus 3 μl isotonic buffer −7 mM Hepes, 26 mM KCl, 0.1 mM dextran, 0.4 mM EGTA, 0.5 mM MgCl2, 45 mM sucrose, pH 7.8), giving a homogenate with an overall dilution of 1 in 4. Where smaller samples had been obtained they were homogenised in 99 or 999 volumes, giving final dilutions of 1 in 100 and 1 in 1000, respectively. The homogenate was kept on ice throughout the process, and homogenisation was performed in 10 second bursts to prevent undue warming of the sample. Unless assayed on the day of homogenisation, samples were re-frozen to −80° C. and stored at this temperature until analysed. Prior to assay the samples were further diluted with isotonic buffer where necessary to give a final dilution of 1 in 1000.
Tumour homogenates were assayed in a similar manner; however, the homogenisation process introduces sufficient DNA damage to maximally stimulate PARP activity and oligonucleotide was not therefore required. The protein concentration of the homogenate was measured using the BCA protein assay and Titertek Multiscan MCC/340 plate reader. Results can be expressed in terms of pmol PAR former per mg protein or per mg tumour.
A pharmacodynamic assay for PARP activity and inhibition uses monoclonal antibodies to measure the amount of PAR polymer that is formed under set conditions in permeabilized peripheral blood lymphocytes and homogenized tumor samples. The quantity of polymer formed can be used as a correlate for PARP activity, whereby decreasing polymer formation correlates with degree of PARP inhibition. PARP activity is expressed as a percentage of baseline, and is calculated by dividing the amount of PAR polymer formed after infusion by the quantity formed before infusion. The feasibility of this assay was successfully tested in the 12 patients Phase 2 study of single-agent temozolomide in patients with metastatic melanoma.
Using a pharmacodynamic assay for PARP activity disclosed in Section C above, PARP inhibition in peripheral blood lymphocytes and tumor tissue was assessed in a Phase 1 clinical trial. As indicated above, enrollment in the Phase 1 Part 2 study has been restricted to patients having metastatic melanoma with biopsiable disease. All patients have been required to consent to pre-treatment and post-treatment biopsies such that PARP activity in the tumor can be evaluated.

SW620 xenograft = experiment: In vivo antitumor efficacy with irinotecan, SW620 xenograft; design: species or system mice; conditions: SW620, once weekly × 3
Description: (§1) In no combination study was antagonism observed.

LoVo xenografts [2] = experiment: In vivo antitumor efficacy with temozolomide, LoVo xenograft
Description: as §1

PARP [3] = experiment: Inhibition of cellular NAD consumption in P388 mouse leukemia cells after PARP activation; format: cell-based; conditions: PARP activated by MNNG, hydrogen peroxide or gamma irradiation, data not shown
Description: (§2) After DNA damage, cellular NAD is rapidly incorporated into poly-ADP-ribose polymer.

Human protein binding = format: in vitro ADME
Description: This value was determined from the target effect (IC89) for inhibition of cellular NAD^+ depletion and poly-ADP-ribose polymer formation and adjusted for protein binding. […] II. Pharmaceutical Combinations of the Present Invention and Their Use

PARP [4] = experiment: Inhibition of cellular NAD consumption in mouse peripheral blood lymphocytes after PARP activation; format: cell-based; conditions: PARP activated by MNNG, hydrogen peroxide or gamma irradiation, data not shown
Description: as §2

A549 cells = experiment: Inhibition of cell growth and potentiation of temozolomide/topotecan, A549; format: cell-based; conditions: for GI50: Homo sapiens, 120 h, 5-day continuous exposure
[5] = IV pharmacokinetics in rats; conditions: Wistar, rat, in vivo, 5 mg/kg
Description: (§3) Each of the dose treatment groups was split into 2 cohort groups of 4 mice. The reason for cohort blood sampling is due to the blood volume limitations of the mouse species. Blood was drawn from each cohort every other pharmacokinetic sampling time. […] Three mice per dose group were euthanized at each of the collection time points. […] Blood from each rat was collected for each time point.

LoVo xenografts [6] = experiment: Ex-vivo clonogenic assay of irradiated LoVo xenografts; format: in vivo
Description: 24 h later tumors were excised, disaggregated to obtain single cell suspensions and plated for colony forming assay. […] The SF for the 15 mg/kg and 30 mg/kg IR combinations equated to that which would have been achieved using radiation doses of 8 Gy or 9.5 Gy, giving dose modification factors (DMF) of 1.6 and 1.9 respectively.

in vivo = conditions: CD-1, mouse, iv, 5 mg/kg
Description: as §3

[7] = IV pharmacokinetics in monkeys; conditions: cynomolgus monkey, in vivo
[8] = A549, compound 0.4 μM (Table 6)
[9] = 15 mg/kg single IV dose as glucuronate salt

## CNCc1ccc(-c2[nH]c3cc(F)cc4c3c2CCNC4=O)cc1.O=P(O)(O)O [Compound I, phosphate salt of 8-fluoro-2-{4-[(methylamino)methyl]phenyl}-1,3,4,5-tetrahydro-6H-azepino[5,4,3-cd]indol-6-one]
PARP [1]; tumor biopsy 4-6 h, temozolomide 135 mg/m^2, Compound I 12 mg/m^2, day 1, individual patients
  % PARP Inhibition: 91%
PARP [1]; tumor biopsy 4-6 h, temozolomide 135 mg/m^2, Compound I 12 mg/m^2, day 4, individual patients
  % PARP Inhibition: 85% and 50%
PARP [1]; tumor biopsy 4-6 h, temozolomide 170 mg/m^2, Compound I 12 mg/m^2, day 1, individual patients
  % PARP Inhibition: 77% and 98%
PARP [1]; tumor biopsy 4-6 h, temozolomide 170 mg/m^2, Compound I 12 mg/m^2, day 5, individual patients
  % PARP Inhibition: 93%
PARP [1]; tumor biopsy 4-6 h, temozolomide 200 mg/m^2, Compound I 12 mg/m^2, day 1, individual patients
  % PARP Inhibition: 90% and 88%
PARP [1]; tumor biopsy 4-6 h, temozolomide 200 mg/m^2, Compound I 18 mg/m^2, day 1, individual patients
  % PARP Inhibition: 98% and 94% and 89% and 97%
PARP [1]; tumor biopsy 4-6 h post-treatment, temozolomide 100 mg/m^2, Compound I 4 mg/m^2, day 1, individual patients
  % PARP Inhibition: 79%
PARP [1]; tumor biopsy at 24 hours post-treatment on day 1, temozolomide 200 mg/m^2, Compound I 18 mg/m^2
  % PARP Inhibition: 86%*

## CNCc1ccc(-c2[nH]c3cc(F)cc4c3c2CCNC4=O)cc1.O=C[C@H](O)[C@@H](O)[C@H](O)[C@H](O)C(=O)O [compound of formula 1 glucuronate salt]
SW620 xenograft; irinotecan 25 mg/kg i.p. + 0.05 mg/kg i.p. (glucuronate salt)
  Enhancement (%): 700%
SW620 xenograft; irinotecan 25 mg/kg i.p. + 0.15 mg/kg i.p. (glucuronate salt)
  Enhancement (%): 1100^f %
SW620 xenograft; irinotecan 25 mg/kg i.p. + 0.5 mg/kg i.p. (glucuronate salt)
  Enhancement (%): 1100^f %
LoVo xenografts [2]; LoVo experiment, any dose group
  body weight loss: No body weight loss
LoVo xenografts [2]; LoVo, temozolomide 68 mg/kg oral + 0.5 mg/kg i.p. (glucuronate salt), once daily for 5 days
  Enhancement (%): 67% and 67^f %

## CNCc1ccc(-c2[nH]c3cc(F)cc4c3c2CCNC4=O)cc1 [compound of formula 1, 8-fluoro-2-{4-[(methylamino)methyl]phenyl}-1,3,4,5-tetrahydro-6H-azepino[5,4,3-cd]indol-6-one]
PARP [3]
  inhibition of PARP catalytic activity (cellular NAD consumption): inhibits PARP catalytic activity
Human protein binding; human, plasma, concentrations between 0.05 to 25 nM
  fraction unbound: 0.274
Human protein binding; target effect IC89 in A549 cells
  plasma concentration from 5 nM target effect corrected for human protein binding: 5.9 ng/mL
PARP [4]
  inhibition of PARP catalytic activity (cellular NAD consumption): inhibits PARP catalytic activity
A549 cells; A549, +0.4 μM compound of formula 1
  Topotecan PF50: 1.6
A549 cells; A549, GI50 temozolomide alone/GI50 temozolomide+0.4 μM compound of formula 1
  Temozolomide PF50: 3.5
A549 cells; A549, compound 0.0005 μM
  PF50 (Temozolomide): 1
  PF50 (Topotecan): 1.4
A549 cells; A549, compound 0.005 μM
  PF50 (Topotecan): 1.8
A549 cells; A549, compound 0.005 μM (5 nM)
  PF50 (Temozolomide): 1.3
A549 cells; A549, compound 0.05 μM
  PF50 (Topotecan): 2.1
A549 cells; A549, compound 0.1 μM
  PF50 (Temozolomide): 2.6
  PF50 (Topotecan): 2.2
A549 cells; [8]
  PF50 (Temozolomide): 3.5
  PF50 (Topotecan): 2.4
A549 cells; A549, LoVo and SW620 cell lines, read-out: GI50 values, range over cell lines
  GI50: 7 to 12 µM
A549 cells; A549, read-out: GI50
  GI50: 7 µM
[5]
  AUC(0-inf): 990 ng·h/mL
  Vd: 10 L/kg
  clearance: 85 mL/min/kg
  half-life: 2.8 h
LoVo xenografts [6]; 15 mg/kg + 5 Gy
  DMF, dose modification factor: 1.6
  SF, surviving fraction: 0.06
  radiation dose that would give the same SF: 8 Gy
LoVo xenografts [6]; 30 mg/kg + 5 Gy
  DMF, dose modification factor: 1.9
  SF, surviving fraction: 0.03
  radiation dose that would give the same SF: 9.5 Gy
In vivo
  AUC(0-inf): 620 ng·h/mL
  Vd: 10 L/kg
  clearance: 136 mL/min/kg
  half-life: 2.3 h
[7]; 15 mg/kg single IV dose (free base) as glucuronate salt
  AUC(0-inf): 7400 ± 700 ng·h/mL
[7]; [9]
  clearance: 33.8 ± 3.1 mL/min/kg
  half-life: 5.2 ± 0.8 h
[7]; 15 mg/kg single IV dose as glucuronate salt, read-out: Vss
  Vd: 7.2 ± 1.2 L/kg
